From US8716292B2, “Riminophenazines with 2-(heteroaryl)amino substituents and their anti-microbial activity” (priority 2010, dated 2014) come the findings set out here.

In the assay the test system is Mycobacterium tuberculosis H37Rv strains. In words: In vitro assay for antimicrobial susceptibility (microplate Alamar blue MIC). Type of assay: cell-based. The note with it: Mycobacterium tuberculosis, H37RV, read-out: MIC (μg/mL) against H37Rv.
Where [1] appears, read: in vitro, Mycobacterium tuberculosis H37Rv strains.
Where [2] appears, read: 7H9, Alamar blue, inhibition ≧90%.

Values after ≈ are worked out from the molar mass of the structure shown. Where two headings read alike, the source gives them in different places.

Regarding `Cc1ncccc1Nc1cc2nc3ccccc3n(-c3cccc(OC(F)(F)F)c3)c-2c/c1=N\C1CCOCC1` [TBI-1035, 5-(3-Trifluoromethoxyphenyl) 3-(4-tetrahydropyranyl)imino-2-(2-methyl-3-pyridyl)amino-3,5-dihydrophenazine], the MIC under setting [1] amounted to 0.062 µg/mL (≈ 0.114 µM).

Take `Cc1ncccc1Nc1cc2nc3ccccc3n(-c3ccc(C(F)(F)F)cc3)c-2c/c1=N\C1CC1` [TBI-729]: under setting [1], the MIC is 0.186 µg/mL (≈ 0.383 µM).

Regarding `CC(C)/N=c1\cc2n(-c3ccc(F)cc3)c3ccccc3nc-2cc1Nc1ncccc1C#N` [TBI-1057], the MIC under setting [2] stood at 0.015 µg/mL (≈ 0.0334 µM).

Regarding `COC1CCC(/N=c2\cc3n(-c4ccc(Cl)c(Cl)c4)c4cc(F)ccc4nc-3cc2Nc2ccc(C)nc2)CC1` (stereo not shown) [TBI-897, 7-Fluoro-5-(3,4-dichlorophenyl)-3-(4-methoxycyclohexyl)imino-2-(6-methyl-3-pyridyl)amino-3,5-dihydrophenazine], under setting [1], the MIC came out at 0.25 µg/mL (≈ 0.434 µM).

Take `Cc1ccc(Nc2cc3nc4ccccc4n(-c4ccc(F)cc4)c-3c/c2=N\[C@H]2CC[C@H](O)CC2)cn1` [TBI-906, 5-(4-Fluorophenyl)-3-(1′,4′-trans-4-hydroxycyclohexyl)imino-2-(6-methyl-3-pyridyl)amino-3,5-dihydrophenazine]: under setting [1], the MIC is 0.5 µg/mL (≈ 1.01 µM).

Take `COc1ncccc1Nc1cc2nc3ccccc3n(-c3ccc(NC(C)=O)cc3)c-2c/c1=N\C1CCCCC1` [TBI-1223, 5-(4-Acetamidophenyl)-3-cyclohexylimino-2-(2-methoxy-3-pyridyl)amino-3,5-dihydrophenazine]: the MIC under setting [1] turned out to be 1.49 µg/mL (≈ 2.79 µM).

Take `Cc1ncccc1Nc1cc2nc3ccccc3n(-c3ccc(C(F)(F)F)cc3)c-2c/c1=N\C1CCOCC1` [TBI-707, 5-(4-Trifluoromethylphenyl)-3-(4-tetrahydropyranyl)imino-2-(2-methyl-3-pyridyl)amino-3,5-dihydrophenazine]: the MIC under setting [1] was determined as 0.011 µg/mL (≈ 0.0208 µM).

For `COC1CCC(/N=c2\cc3n(-c4ccc(Cl)c(Cl)c4)c4ccccc4nc-3cc2Nc2cccnc2)CC1` (stereo not shown) [TBI-352, 5-(3,4-Dichlorophenyl)-3-(4-methoxycyclohexyl)imino-2-(3-pyridyl)amino-3,5-dihydrophenazine], the MIC under setting [1] came out at 0.096 µg/mL (≈ 0.176 µM).

In the case of `COc1ncccc1Nc1cc2nc3ccccc3n(-c3ccc(Br)cc3)c-2c/c1=N\C1CCC1` [TBI-520], under setting [1], the MIC is 0.043 µg/mL (≈ 0.0817 µM).

Turning to `Cc1ccc(Nc2cc3nc4ccccc4n(-c4ccc(Cl)c(Cl)c4)c-3c/c2=N\C2CCCCC2)cn1` [TBI-354, 5-(3,4-Dichlorophenyl)-3-cyclohexylimino-2-(6-methyl-3-pyridyl)amino-3,5-dihydrophenazine], the MIC under setting [1] worked out at 0.229 µg/mL (≈ 0.433 µM).

Turning to `Cc1ccc(-n2c3c/c(=N\C4CCOCC4)c(Nc4cncc(C)c4)cc-3nc3ccccc32)cc1` [TBI-328, 5-(4-Methylphenyl)-3-(4-tetrahydropyranyl)imino-2-(5-methyl-3-pyridyl)amino-3,5-dihydrophenazine], under setting [1], the MIC worked out at 0.037 µg/mL (≈ 0.0778 µM).

As for `Fc1ccc(-n2c3c/c(=N\C4CCOCC4)c(Nc4ccccn4)cc-3nc3ccccc32)cc1` [TBI-1087, 5-(4-Fluorophenyl)-3-(4-tetrahydropyranyl)imino-2-(2-pyridyl)amino-3,5-dihydrophenazine], the MIC under setting [2] came out at 0.028 µg/mL (≈ 0.0601 µM).

For `COC1CCC(/N=c2\cc3n(-c4ccc(F)cc4)c4ccccc4nc-3cc2Nc2ccccn2)CC1` (stereo not shown) [TBI-1078, 5-(4-Fluorophenyl)-3-(4-methoxycyclohexyl)imino-2-(2-pyridyl)amino-3,5-dihydrophenazine], the MIC under setting [2] was 0.028 µg/mL (≈ 0.0567 µM).

As for `COc1ncccc1Nc1cc2nc3ccccc3n(-c3ccc(C)cc3)c-2c/c1=N\C1CC1` [TBI-339, 5-(4-Methylphenyl)-3-cyclopropylimino-2-(2-methoxy-3-pyridyl)amino-3,5-dihydrophenazine], the MIC under setting [1] worked out at 0.033 µg/mL (≈ 0.0737 µM).

As for `COC1CCC(/N=c2\cc3n(-c4ccc(Cl)cc4)c4ccccc4nc-3cc2Nc2ncccn2)CC1` (stereo not shown) [TBI-1090, 5-(4-Chlorophenyl)-3-(4-methoxycyclohexyl)imino-2-(pyrimidin-2-yl)amino-3,5-dihydrophenazine], the MIC under setting [2] was under 0.0075 µg/mL.

Turning to `Cc1cncc(Nc2cc3nc4ccccc4n(-c4ccc(F)cc4)c-3c/c2=N\C2CC2)c1` [TBI-1030, 5-(4-Fluorophenyl)-3-cyclopropylimino-2-(5-methyl-3-pyridyl)amino-3,5-dihydrophenazine], the MIC under setting [1] stood at 0.012 µg/mL (≈ 0.0276 µM).

As for `CC(C)/N=c1\cc2n(-c3cccc([S+](C)[O-])c3)c3ccccc3nc-2cc1Nc1cccnc1` (stereo not shown) [TBI-455, 5-(3-Methylsulfinylphenyl)-3-(1-methylethyl)imino-2-(3-pyridyl)amino-3,5-dihydrophenazine], the MIC under setting [1] stood at 0.5 µg/mL (≈ 1.07 µM).

With `COc1ncccc1Nc1cc2nc3ccccc3n(-c3ccc(F)c(F)c3)c-2c/c1=N\C1CCC1` [TBI-530, 5-(3,4-Difluorophenyl)-3-cyclobutylimino-2-(2-methoxy-3-pyridyl)amino-3,5-dihydrophenazine], under setting [1], the MIC is 0.04 µg/mL (≈ 0.0827 µM).

On to `COC1CCC(/N=c2\cc3n(-c4ccc(NC(C)=O)cc4)c4ccccc4nc-3cc2Nc2ccc(C)nc2)CC1` (stereo not shown) [TBI-1229], for which, under setting [1], the MIC turned out to be 0.482 µg/mL (≈ 0.882 µM).

Turning to `COC1CCC(/N=c2\cc3n(-c4ccc(F)c(F)c4)c4ccccc4nc-3cc2Nc2cnccn2)CC1` (stereo not shown) [TBI-1445, 5-(3,4-Difluorophenyl)-3-(4-methoxycyclohexyl)imino-2-(pyrazin-2-yl)amino-3,5-dihydrophenazine], under setting [2], the MIC worked out at 0.056 µg/mL (≈ 0.109 µM).

As for `Cc1ccc(-n2c3c/c(=N\C4CCN(C5CCCC5)CC4)c(Nc4cccnc4)cc-3nc3ccccc32)cc1` [TBI-307, 5-(4-Methylphenyl)-3-(N-cyclopentyl-4-piperidyl)imino-2-(3-pyridyl)amino-3,5-dihydrophenazine], under setting [1], the MIC stood at 0.125 µg/mL (≈ 0.236 µM).

Turning to `COc1ccc2nc3cc(Nc4ccc(C)nc4)/c(=N/C4CCCCC4)cc-3n(-c3ccc(Cl)cc3)c2c1` [TBI-869, 7-Methoxy-5-(4-chlorophenyl)-3-cyclohexylimino-2-(6-methyl-3-pyridyl)amino-3,5-dihydrophenazine], the MIC under setting [1] stood at 0.056 µg/mL (≈ 0.107 µM).

For the compound `COC1CCC(/N=c2\cc3n(-c4ccccc4)c4ccccc4nc-3cc2Nc2ccc(C)nc2)CC1` (stereo not shown) [TBI-072, 5-Phenyl-3-(4-methoxycyclohexyl)imino-2-(6-methyl-pyridyl)amino-3,5-dihydrophenazine], the MIC under setting [1] stood at 0.091 µg/mL (≈ 0.186 µM).

Turning to `Cc1ncccc1Nc1cc2nc3ccccc3n(-c3ccc(F)cc3)c-2c/c1=N\C1CC1` [TBI-1014, 5-(4-Fluorophenyl)-3-cyclopropylimino-2-(2-methyl-3-pyridyl)amino-3,5-dihydrophenazine], the MIC under setting [1] worked out at 0.025 µg/mL (≈ 0.0574 µM).

Regarding `Clc1ccc(-n2c3c/c(=N\C4CCOCC4)c(Nc4cccnc4)cc-3nc3ccccc32)cc1Cl` [TBI-351, 5-(3,4-Dichlorophenyl)-3-(4-tetrahydropyranyl)imino-2-(3-pyridyl)amino-3,5-dihydrophenazine], the MIC under setting [1] came out at 0.079 µg/mL (≈ 0.153 µM).

In the case of `COC1CCC(/N=c2\cc3n(-c4ccc(F)c(F)c4)c4ccccc4nc-3cc2Nc2ccc([N+](=O)[O-])cn2)CC1` (stereo not shown) [TBI-1444, 5-(3,4-Difluorophenyl)-3-(4-methoxycyclohexyl)imino-2-(5-nitro-2-pyridyl)amino-3,5-dihydrophenazine], the MIC under setting [2] worked out at 0.114 µg/mL (≈ 0.205 µM).

As for `COc1ncccc1Nc1cc2nc3ccccc3n(-c3ccccc3)c-2c/c1=N\C1CCC(OC)CC1` (stereo not shown) [TBI-063, 5-Phenyl-3-(4-methoxycyclohexyl)imino-2-(2-methoxy-3-pyridyl)amino-3,5-dihydrophenazine], the MIC under setting [1] worked out at 0.06 µg/mL (≈ 0.119 µM).

In the case of `Cc1ccc(Nc2cc3nc4ccccc4n(-c4ccccc4)c-3c/c2=N\C2CC2)cn1` [TBI-095], the MIC under setting [1] was determined as 0.048 µg/mL (≈ 0.115 µM).
